Measured values published in US20200038383A1, “IMMEDIATE-RELEASE ABUSE DETERRENT CO[…] MEDICAMENTS FOR TREATING PAIN, ADD, ADHD AND OTHER SYNDROMES OR DISORDERS” (KEMPHARM, INC., priority 2016, published 2020).
Where no end group is shown, it is not given here.

How the values were obtained:
[1] = Oral PK of hydrocodone conjugates in rats (plasma hydrocodone, hydromorphone, intact conjugate by LC-MS/MS)
[2] = Chemical stability (hydrolysis) of hydrocodone conjugates in water; assay type: physicochemical; conditions: one hour
Procedure: Exemplary conjugates of hydrocodone of the present technology and control test conjugates not of the present technology were tested for chemical stability under conditions similar to what a potential drug abuser may use to “extract” the active portion of the molecule, for example dissolved in water, hydrochloric acid or sodium bicarbonate either at ambient temperature or 100° C.

[3] = Hydrolysis to hydrocodone in 1 N HCl; conditions: 1 hour
[4] = Oral dose escalation study in rats; conditions: oral solutions, escalating dosages
[5] = Tamper resistance study (extraction methods, HPLC); assay type: physicochemical
Source text: Certain prodrug conjugates of the present technology were exposed to various commonly applied “extraction methods” to test for hydrolysis and/or decomposition of the prodrug.

[6] = Hydrolysis in 5% NaHCO3; assay type: physicochemical; conditions: one hour
[7] = Water solubility / feasibility of intravenous administration
[8] = Intranasal PK of hydrocodone conjugates in rats; conditions: equivalent to 2 mg/kg hydrocodone freebase
[9] = Oral PK in dogs; conditions: equivalent to 2 mg/kg freebase hydrocodone
[10] = equivalent to 2 mg/kg hydrocodone freebase
[11] = ambient temperature (about 20° C.)
[12] = equivalent to 2 mg/kg freebase hydrocodone

2-aminobenzoate-hydrocodone [Compound 2-Abz-HC]
hydrocodone AUC, lower than Hydrocodone.BT [1, 10]: approximately 35%
hydrocodone Cmax, lower than Hydrocodone.BT [1, 10]: ~60%
hydrocodone Tmax compared with Hydrocodone.BT [1, 10]: approximately four times longer
hydromorphone AUC, lower than Hydrocodone.BT [1, 10]: approximately 25%
hydromorphone Cmax, lower than Hydrocodone.BT [1, 10]: ~50%
amount of conjugate hydrolyzed in water ([2]; 100° C. oil bath): 0%
amount of conjugate hydrolyzed in water [2, 11]: 0%
%-release in 1 N HCl ([3]; 100° C. oil bath): 16%
%-release in 1 N HCl ([3]; ambient (~20° C.)): 0%

CC(=O)Oc1ccccc1C(=O)OC1=CCC2C3Cc4ccc(OC(=O)c5ccccc5OC(C)=O)c5c4C2(CCN3C)C1O5 (stereo not drawn) [3,6-di-aspirin-HM, 3,6,-di-aspirin-hydromorphone]
exposure (AUC) to hydromorphone at doses above the therapeutic level [4]: reached a plateau
stability under commonly applied extraction methods [5]: chemically stable
Release of hydromorphone (as %-AUC by HPLC) ([5]; 1 N HCl, ambient temperature, 30 min.): 0%
Release of hydromorphone (as %-AUC by HPLC) ([5]; 1 N HCl, ambient temperature, 60 min.): 0%
Release of hydromorphone (as %-AUC by HPLC) ([5]; 1 N NaOH, ambient temperature, 30 min.): 1%
Release of hydromorphone (as %-AUC by HPLC) ([5]; 1 N NaOH, ambient temperature, 60 min.): 1%
Release of hydromorphone (as %-AUC by HPLC) ([5]; 4 N NaOH, ambient temperature, 30 min.): 1%
Release of hydromorphone (as %-AUC by HPLC) ([5]; 4 N NaOH, ambient temperature, 60 min.): 6%
Release of hydromorphone (as %-AUC by HPLC) ([5]; 5% Acetic acid, ambient temperature, 30 min.): 0%
Release of hydromorphone (as %-AUC by HPLC) ([5]; 5% Acetic acid, ambient temperature, 60 min.): 0%
Release of hydromorphone (as %-AUC by HPLC) ([5]; Glacial acetic acid, ambient temperature, 30 min.): 0%
Release of hydromorphone (as %-AUC by HPLC) ([5]; Glacial acetic acid, ambient temperature, 60 min.): 0%
Release of hydromorphone (as %-AUC by HPLC) ([5]; Sat. NaHCO3, ambient temperature, 30 min.): 0%
Release of hydromorphone (as %-AUC by HPLC) ([5]; Sat. NaHCO3, ambient temperature, 60 min.): 0%
Release of hydromorphone (as %-AUC by HPLC) ([5]; Water, ambient temperature, 30 min.): 0%
Release of hydromorphone (as %-AUC by HPLC) ([5]; Water, ambient temperature, 60 min.): 0%

COc1ccc(C(=O)OC2=CC[C@H]3[C@H]4Cc5ccc(OC)c6c5[C@@]3(CCN4C)C2O6)cc1O (stereo partly drawn) [3-OH-4-MeO-Bz-HC]
%-release in 5% NaHCO3 ([6]; 100° C. oil bath): 36%
%-release in 5% NaHCO3 ([6]; ambient (~20° C.)): 0%
solubility in water (intravenous administration at oral equivalent doses) [7]: hydrophobic
%-release in 1 N HCl ([3]; 100° C. oil bath): 35%
%-release in 1 N HCl ([3]; ambient (~20° C.)): 0%

COc1ccc2c3c1OC1C(OC(=O)CCCCC(=O)O)=CC[C@H]4[C@@H](C2)N(C)CC[C@]314 (stereo partly drawn) [Adipate-HC]
AUC for hydromorphone released from Adipate-HC, higher than Bz-HC (sentence on hydrocodone plasma concentrations, FIG. 3) [8]: approximately 280%
Cmax for hydromorphone released from Adipate-HC, higher than Bz-HC (sentence on hydrocodone plasma concentrations, FIG. 3) [8]: ~60%
hydromorphone AUC, higher than Bz-HC (FIG. 4) [8]: approximately 750%
hydromorphone Cmax, higher than Bz-HC (FIG. 4) [8]: ~660%
%-release in 5% NaHCO3 ([6]; 100° C. oil bath): 100%
%-release in 5% NaHCO3 ([6]; ambient (~20° C.)): 3%
solubility in water (intravenous administration at oral equivalent doses) [7]: water soluble
%-release in 1 N HCl ([3]; 100° C. oil bath): 100%
%-release in 1 N HCl ([3]; ambient (~20° C.)): 13%

COc1ccc2c3c1OC1C(OC(=O)c4ccccc4)=CCC4C(C2)N(C)CCC314 (stereo not drawn) [Bz-HC, benzhydrocodone]
maximum plasma concentrations of hydromorphone versus dose ([1]; doses above 2.00 mg/kg): did not significantly change
exposures (AUC) to hydrocodone and hydromorphone versus dose ([1]; doses between 0.25 and 4.00 mg/kg): fairly linear
AUC for intact Bz-HC as % of the AUC for hydrocodone [1, 12]: approximately 10%
AUC for intact Bz-HC as % of the AUC for hydromorphone [1, 12]: ~3%
hydrocodone Cmax compared with Hydrocodone.BT [1, 10]: approximately equal
solubility in water (intravenous administration at oral equivalent doses) [7]: hydrophobic
water solubility (or solubility in PBS) ([7]; 0.30 mg/kg close to the maximum intravenous dose in rats): poor
AUC for intact Bz-HC as % of the AUC for hydrocodone [9]: approximately 10%

COc1ccc(C(=O)OC2=CC[C@H]3[C@H]4Cc5ccc(OC)c6c5[C@@]3(CCN4C)C2O6)cc1 (stereo partly drawn) [Compound 4-MeO-Bz-HC]
amount of conjugate hydrolyzed in water ([2]; 100° C. oil bath): 0%
amount of conjugate hydrolyzed in water [2, 11]: 0%
solubility in water (intravenous administration at oral equivalent doses) [7]: hydrophobic

COc1ccc2c3c1OC1C(OC(=O)COCC(=O)O)=CC[C@H]4[C@@H](C2)N(C)CC[C@]314 (stereo partly drawn) [Diglycolate-HC, reference compound]
solubility in water (intravenous administration at oral equivalent doses) [7]: water soluble

COc1ccc2c3c1OC1C(OC(=O)c4ccc5c(c4)OCO5)=CC[C@H]4[C@@H](C2)N(C)CC[C@]314 (stereo partly drawn) [Piperonylate-HC]
solubility in water (intravenous administration at oral equivalent doses) [7]: hydrophobic

Tyr-Tyr-Phe-Phe-Ile-Hydrocodone (YYFFI-hydrocodone) [YYFFI-HC]
%-release in 5% NaHCO3 ([6]; 100° C. oil bath): 70%
%-release in 5% NaHCO3 ([6]; ambient (~20° C.)): 0%
